Counter-ions that a name gives are not always drawn.
Tested on: albino rats
Experiment: Rat hair growth trial (plucked hair at end of G-2 anagen after topical application)
Assay type: in vivo
Conditions: for LENGTH (length of hair) / WT/AREA (weight of hair per unit area of skin): G-2 anagen, topical twice daily, 6 rats per group, TBC 5% by weight in vanishing cream base, minoxidil 2% by weight in 65% v/v aqueous ethanol
Procedure: The effect of esters of citric acid on hair growth was assessed using albino rats as an animal model. The rats were chosen from as few litters as possible and were each approximately 27-30 days of age at the start of the trial. Each rat was housed individually to prevent licking.
In each comparison, 6 rats were used in each group and hair growth was assessed as follows: A small patch of normal skin (3cm x 3cm) on the upper back of each rat was selected and hairs were plucked from this area at the start of the trial (G-1 telogen). Test materials or control in a vanishing cream base or an alcoholic lotion, as appropriate, were then applied twice daily until the end of the next anagen, i.e. after a further 20 days from the start of trial (G-2 anagen). Each application of lotion amounted to about 50 mg.
At the end of G2-anagen, hair was plucked again from the same dorsal area, and this was used for measurement of: • i) weight of hair per unit area of skin, • ii) length of hair, and • iii) diameter of hair measured microscopically.
This procedure was employed to compare the effect of topical application to the rat model of a known hair growth promoter, namely minoxidil and a test material as used in accordance with the invention, namely tri-n-butyl citrate.
In this experiment minoxidil was employed at a concentration of 2% by weight in 65% v/v aqueous ethanol and tri-n-butyl citrate was employed at a concentration of 5% by weight in a vanishing cream base.

[1] = end of G-2 anagen, versus control (vanishing cream base)

Structure (SMILES) | LENGTH (length of hair) [mm] | WT/AREA (weight of hair per unit area of skin) [mg/cm2] | hair diameter, comparison in words [1] | length of hair, comparison in words [1] | weight of plucked hair per unit area, comparison in words [1]
CCCCOC(=O)CC(O)(CC(=O)OCCCC)C(=O)OCCCC [TBC, tri-n-butyl citrate] | 10.74 ± 1.16 | 17.24 ± 0.97 | similar | marked increase over both control and minoxidil | marked increase over the control
Nc1cc(N2CCCCC2)nc(N)[n+]1[O-] [Minoxidil, reference compound] | 8.85 ± 0.42 | 16.27 ± 0.97 |  |  | 

— patent publication EP0517371B1, “Hair growth composition containing citric acid esters” (UNILEVER PLC, priority 1991, dated 1992)
